Measured values from ChEMBL document CHEMBL5291721, “A preclinical secondary pharmacology resource illuminates target-adverse drug reaction associations of marketed drugs” (Nat Commun, 2023).

How the values were obtained:
[1] = biological target: Beta-3 adrenergic receptor (Homo sapiens, UniProt P13945)
[2] = biological target: Voltage-dependent N-type calcium channel subunit alpha-1B (Rattus norvegicus, UniProt Q02294); type: functional
[3] = biological target: T1, Corticotropin-releasing factor receptor 1 (Homo sapiens, UniProt P34998)
T1 sequence (P34998 whole entry): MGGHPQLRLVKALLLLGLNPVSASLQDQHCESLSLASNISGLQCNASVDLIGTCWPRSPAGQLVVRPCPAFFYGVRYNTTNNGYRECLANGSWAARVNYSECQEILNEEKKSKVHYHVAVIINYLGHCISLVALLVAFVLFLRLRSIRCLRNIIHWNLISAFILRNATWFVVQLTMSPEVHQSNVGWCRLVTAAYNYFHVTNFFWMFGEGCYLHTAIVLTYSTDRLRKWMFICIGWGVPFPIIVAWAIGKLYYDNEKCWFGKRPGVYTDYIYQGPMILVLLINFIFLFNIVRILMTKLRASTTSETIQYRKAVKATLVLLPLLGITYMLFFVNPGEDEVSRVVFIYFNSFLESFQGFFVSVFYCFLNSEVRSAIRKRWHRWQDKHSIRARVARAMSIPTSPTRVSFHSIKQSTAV

[4] = biological target: T2, Endothelin receptor type B (Homo sapiens, UniProt P24530)
T2 sequence (P24530 whole entry): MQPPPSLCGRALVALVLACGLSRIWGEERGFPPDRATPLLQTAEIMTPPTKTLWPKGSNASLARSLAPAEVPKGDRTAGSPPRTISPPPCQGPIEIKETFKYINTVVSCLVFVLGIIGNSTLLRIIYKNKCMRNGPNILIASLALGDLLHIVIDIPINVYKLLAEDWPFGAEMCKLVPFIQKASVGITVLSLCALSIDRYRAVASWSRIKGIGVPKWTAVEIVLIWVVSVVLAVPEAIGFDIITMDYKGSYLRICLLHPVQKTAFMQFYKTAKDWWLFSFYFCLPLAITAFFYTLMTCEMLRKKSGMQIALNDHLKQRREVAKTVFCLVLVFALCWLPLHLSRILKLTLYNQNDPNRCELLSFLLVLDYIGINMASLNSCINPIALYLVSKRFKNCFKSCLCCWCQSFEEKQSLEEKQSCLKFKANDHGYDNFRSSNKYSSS

[5] = biological target: 5-hydroxytryptamine receptor 2B (Homo sapiens, UniProt P41595)
5-hydroxytryptamine receptor 2B, sequence (P41595 whole entry): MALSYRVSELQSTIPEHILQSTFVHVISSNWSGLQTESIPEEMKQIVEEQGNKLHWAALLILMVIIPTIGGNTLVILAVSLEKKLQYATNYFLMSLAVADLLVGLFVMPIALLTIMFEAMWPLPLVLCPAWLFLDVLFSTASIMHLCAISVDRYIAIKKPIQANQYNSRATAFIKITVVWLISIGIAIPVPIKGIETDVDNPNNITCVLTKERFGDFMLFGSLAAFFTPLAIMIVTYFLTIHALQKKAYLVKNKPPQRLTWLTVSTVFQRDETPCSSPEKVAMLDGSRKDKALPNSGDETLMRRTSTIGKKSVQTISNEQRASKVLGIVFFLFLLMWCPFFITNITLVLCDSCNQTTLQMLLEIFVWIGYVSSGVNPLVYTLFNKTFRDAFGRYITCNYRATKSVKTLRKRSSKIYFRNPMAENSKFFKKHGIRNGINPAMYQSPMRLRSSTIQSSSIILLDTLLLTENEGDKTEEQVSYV

[6] = biological target: T3, Neuropeptide Y receptor type 2 (Homo sapiens, UniProt P49146)
T3 sequence (P49146 whole entry): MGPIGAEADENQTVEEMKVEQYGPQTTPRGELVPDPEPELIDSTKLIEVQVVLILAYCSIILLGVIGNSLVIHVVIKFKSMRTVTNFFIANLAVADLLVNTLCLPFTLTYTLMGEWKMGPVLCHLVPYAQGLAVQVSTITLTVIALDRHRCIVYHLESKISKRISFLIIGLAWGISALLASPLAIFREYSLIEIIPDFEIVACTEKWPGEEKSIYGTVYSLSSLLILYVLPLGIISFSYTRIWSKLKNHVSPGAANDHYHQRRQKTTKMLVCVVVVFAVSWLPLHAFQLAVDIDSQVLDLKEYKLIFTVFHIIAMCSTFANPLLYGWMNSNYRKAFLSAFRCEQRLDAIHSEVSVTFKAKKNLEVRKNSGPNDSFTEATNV

D(1A) dopamine receptor [7] = biological target: T4, D(1A) dopamine receptor (Homo sapiens, UniProt P21728); type: functional, cell-based
T4 sequence (P21728 whole entry): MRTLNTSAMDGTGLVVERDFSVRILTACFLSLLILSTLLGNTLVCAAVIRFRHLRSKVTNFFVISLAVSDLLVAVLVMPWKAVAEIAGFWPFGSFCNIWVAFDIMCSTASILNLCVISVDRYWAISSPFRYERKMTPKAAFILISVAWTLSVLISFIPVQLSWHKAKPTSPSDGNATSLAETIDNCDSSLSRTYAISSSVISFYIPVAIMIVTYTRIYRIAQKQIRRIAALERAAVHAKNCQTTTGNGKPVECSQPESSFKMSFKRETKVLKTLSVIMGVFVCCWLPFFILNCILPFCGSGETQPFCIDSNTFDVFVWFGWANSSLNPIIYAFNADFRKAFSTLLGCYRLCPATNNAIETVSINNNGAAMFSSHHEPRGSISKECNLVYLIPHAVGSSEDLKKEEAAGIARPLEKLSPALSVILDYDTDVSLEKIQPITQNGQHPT

Thromboxane A2 receptor [8] = biological target: T5, Thromboxane A2 receptor (Homo sapiens, UniProt P21731); type: functional
T5 sequence (P21731 whole entry): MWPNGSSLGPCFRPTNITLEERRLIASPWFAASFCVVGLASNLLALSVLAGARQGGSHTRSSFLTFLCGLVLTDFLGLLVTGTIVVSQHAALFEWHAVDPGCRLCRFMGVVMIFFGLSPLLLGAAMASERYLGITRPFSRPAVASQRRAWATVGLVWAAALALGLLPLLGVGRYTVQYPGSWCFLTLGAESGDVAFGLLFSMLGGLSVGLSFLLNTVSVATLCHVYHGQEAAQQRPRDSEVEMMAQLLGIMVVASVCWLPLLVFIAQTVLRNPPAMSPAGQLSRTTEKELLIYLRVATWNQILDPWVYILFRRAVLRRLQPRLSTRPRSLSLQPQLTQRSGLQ

Acetylcholinesterase = Acetylcholinesterase (Homo sapiens, UniProt P22303); type: functional
Acetylcholinesterase, sequence (P22303 whole entry): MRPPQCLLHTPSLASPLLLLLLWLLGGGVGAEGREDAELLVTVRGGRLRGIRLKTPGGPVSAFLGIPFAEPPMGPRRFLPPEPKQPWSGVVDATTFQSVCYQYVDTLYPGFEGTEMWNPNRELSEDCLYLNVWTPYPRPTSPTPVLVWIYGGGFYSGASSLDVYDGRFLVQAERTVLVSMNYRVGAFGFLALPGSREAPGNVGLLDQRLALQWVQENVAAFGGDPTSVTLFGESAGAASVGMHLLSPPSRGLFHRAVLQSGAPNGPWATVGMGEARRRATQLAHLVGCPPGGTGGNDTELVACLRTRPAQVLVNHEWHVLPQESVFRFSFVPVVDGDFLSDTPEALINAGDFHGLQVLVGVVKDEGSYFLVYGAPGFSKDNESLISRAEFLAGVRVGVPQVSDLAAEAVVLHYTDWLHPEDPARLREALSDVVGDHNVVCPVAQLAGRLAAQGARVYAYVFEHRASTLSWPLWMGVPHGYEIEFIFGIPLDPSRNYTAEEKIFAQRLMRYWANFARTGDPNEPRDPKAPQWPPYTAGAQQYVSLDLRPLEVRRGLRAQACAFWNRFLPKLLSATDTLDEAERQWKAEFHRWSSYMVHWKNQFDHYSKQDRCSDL

Thromboxane A2 receptor [9] = biological target: T5, Thromboxane A2 receptor; type: functional, cell-based
[10] = biological target: Synaptic vesicular amine transporter (Rattus norvegicus, UniProt Q01827); type: functional
Synaptic vesicular amine transporter, sequence (Q01827 whole entry): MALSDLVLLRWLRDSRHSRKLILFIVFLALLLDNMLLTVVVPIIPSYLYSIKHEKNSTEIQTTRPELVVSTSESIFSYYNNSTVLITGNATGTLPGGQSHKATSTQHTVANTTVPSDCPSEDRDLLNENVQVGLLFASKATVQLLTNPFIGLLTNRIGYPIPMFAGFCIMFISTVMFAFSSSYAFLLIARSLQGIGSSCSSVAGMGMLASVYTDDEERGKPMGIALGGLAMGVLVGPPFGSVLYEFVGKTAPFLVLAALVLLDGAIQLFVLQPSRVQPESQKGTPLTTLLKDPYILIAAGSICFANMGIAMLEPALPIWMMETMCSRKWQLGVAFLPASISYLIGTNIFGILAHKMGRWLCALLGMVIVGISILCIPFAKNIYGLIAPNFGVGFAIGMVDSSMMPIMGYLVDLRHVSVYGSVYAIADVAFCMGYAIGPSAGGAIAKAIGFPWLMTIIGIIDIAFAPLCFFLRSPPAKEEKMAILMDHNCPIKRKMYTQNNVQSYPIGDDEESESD

Androgen receptor = biological target: T6, Androgen receptor (Rattus norvegicus, UniProt P15207); type: functional
T6 sequence (P15207 whole entry): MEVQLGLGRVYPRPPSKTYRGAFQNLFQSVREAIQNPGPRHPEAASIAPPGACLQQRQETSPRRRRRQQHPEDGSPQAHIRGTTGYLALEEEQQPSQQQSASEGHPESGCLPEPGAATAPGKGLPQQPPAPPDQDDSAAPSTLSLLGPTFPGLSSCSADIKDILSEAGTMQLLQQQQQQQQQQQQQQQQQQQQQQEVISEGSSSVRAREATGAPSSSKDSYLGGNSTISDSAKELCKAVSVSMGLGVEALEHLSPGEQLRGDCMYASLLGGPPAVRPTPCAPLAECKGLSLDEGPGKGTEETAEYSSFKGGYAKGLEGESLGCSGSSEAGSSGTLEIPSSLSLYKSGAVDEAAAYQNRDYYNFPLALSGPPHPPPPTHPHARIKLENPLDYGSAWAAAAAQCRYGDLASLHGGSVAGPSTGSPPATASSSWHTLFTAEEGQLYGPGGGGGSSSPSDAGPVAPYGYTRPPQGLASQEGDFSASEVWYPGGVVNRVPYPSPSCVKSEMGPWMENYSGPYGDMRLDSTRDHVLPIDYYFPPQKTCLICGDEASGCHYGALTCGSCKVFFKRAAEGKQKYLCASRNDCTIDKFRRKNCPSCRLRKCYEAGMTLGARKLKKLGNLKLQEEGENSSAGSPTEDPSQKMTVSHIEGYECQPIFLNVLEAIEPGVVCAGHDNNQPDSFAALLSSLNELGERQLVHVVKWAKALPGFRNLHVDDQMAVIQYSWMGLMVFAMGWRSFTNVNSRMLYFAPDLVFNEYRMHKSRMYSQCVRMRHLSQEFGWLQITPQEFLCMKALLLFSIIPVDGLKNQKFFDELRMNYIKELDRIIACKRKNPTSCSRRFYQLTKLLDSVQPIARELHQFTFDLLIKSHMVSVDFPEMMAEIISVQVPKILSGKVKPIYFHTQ

D(1A) dopamine receptor [11] = biological target: T4, D(1A) dopamine receptor
Note: assay procedure not described here.

Beta-3 adrenergic receptor, sequence (P13945 whole entry): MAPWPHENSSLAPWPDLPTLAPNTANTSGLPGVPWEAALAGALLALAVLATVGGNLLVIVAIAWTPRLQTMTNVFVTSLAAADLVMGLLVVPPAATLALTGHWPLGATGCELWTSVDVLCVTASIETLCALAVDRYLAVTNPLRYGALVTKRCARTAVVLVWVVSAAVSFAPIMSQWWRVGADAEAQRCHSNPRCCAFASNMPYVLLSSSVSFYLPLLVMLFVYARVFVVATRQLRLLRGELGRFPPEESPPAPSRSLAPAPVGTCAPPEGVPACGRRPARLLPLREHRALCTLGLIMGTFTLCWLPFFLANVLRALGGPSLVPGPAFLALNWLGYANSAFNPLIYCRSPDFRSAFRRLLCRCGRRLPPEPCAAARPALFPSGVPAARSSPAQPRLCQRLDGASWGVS
Voltage-dependent N-type calcium channel subunit alpha-1B, sequence (Q02294 whole entry): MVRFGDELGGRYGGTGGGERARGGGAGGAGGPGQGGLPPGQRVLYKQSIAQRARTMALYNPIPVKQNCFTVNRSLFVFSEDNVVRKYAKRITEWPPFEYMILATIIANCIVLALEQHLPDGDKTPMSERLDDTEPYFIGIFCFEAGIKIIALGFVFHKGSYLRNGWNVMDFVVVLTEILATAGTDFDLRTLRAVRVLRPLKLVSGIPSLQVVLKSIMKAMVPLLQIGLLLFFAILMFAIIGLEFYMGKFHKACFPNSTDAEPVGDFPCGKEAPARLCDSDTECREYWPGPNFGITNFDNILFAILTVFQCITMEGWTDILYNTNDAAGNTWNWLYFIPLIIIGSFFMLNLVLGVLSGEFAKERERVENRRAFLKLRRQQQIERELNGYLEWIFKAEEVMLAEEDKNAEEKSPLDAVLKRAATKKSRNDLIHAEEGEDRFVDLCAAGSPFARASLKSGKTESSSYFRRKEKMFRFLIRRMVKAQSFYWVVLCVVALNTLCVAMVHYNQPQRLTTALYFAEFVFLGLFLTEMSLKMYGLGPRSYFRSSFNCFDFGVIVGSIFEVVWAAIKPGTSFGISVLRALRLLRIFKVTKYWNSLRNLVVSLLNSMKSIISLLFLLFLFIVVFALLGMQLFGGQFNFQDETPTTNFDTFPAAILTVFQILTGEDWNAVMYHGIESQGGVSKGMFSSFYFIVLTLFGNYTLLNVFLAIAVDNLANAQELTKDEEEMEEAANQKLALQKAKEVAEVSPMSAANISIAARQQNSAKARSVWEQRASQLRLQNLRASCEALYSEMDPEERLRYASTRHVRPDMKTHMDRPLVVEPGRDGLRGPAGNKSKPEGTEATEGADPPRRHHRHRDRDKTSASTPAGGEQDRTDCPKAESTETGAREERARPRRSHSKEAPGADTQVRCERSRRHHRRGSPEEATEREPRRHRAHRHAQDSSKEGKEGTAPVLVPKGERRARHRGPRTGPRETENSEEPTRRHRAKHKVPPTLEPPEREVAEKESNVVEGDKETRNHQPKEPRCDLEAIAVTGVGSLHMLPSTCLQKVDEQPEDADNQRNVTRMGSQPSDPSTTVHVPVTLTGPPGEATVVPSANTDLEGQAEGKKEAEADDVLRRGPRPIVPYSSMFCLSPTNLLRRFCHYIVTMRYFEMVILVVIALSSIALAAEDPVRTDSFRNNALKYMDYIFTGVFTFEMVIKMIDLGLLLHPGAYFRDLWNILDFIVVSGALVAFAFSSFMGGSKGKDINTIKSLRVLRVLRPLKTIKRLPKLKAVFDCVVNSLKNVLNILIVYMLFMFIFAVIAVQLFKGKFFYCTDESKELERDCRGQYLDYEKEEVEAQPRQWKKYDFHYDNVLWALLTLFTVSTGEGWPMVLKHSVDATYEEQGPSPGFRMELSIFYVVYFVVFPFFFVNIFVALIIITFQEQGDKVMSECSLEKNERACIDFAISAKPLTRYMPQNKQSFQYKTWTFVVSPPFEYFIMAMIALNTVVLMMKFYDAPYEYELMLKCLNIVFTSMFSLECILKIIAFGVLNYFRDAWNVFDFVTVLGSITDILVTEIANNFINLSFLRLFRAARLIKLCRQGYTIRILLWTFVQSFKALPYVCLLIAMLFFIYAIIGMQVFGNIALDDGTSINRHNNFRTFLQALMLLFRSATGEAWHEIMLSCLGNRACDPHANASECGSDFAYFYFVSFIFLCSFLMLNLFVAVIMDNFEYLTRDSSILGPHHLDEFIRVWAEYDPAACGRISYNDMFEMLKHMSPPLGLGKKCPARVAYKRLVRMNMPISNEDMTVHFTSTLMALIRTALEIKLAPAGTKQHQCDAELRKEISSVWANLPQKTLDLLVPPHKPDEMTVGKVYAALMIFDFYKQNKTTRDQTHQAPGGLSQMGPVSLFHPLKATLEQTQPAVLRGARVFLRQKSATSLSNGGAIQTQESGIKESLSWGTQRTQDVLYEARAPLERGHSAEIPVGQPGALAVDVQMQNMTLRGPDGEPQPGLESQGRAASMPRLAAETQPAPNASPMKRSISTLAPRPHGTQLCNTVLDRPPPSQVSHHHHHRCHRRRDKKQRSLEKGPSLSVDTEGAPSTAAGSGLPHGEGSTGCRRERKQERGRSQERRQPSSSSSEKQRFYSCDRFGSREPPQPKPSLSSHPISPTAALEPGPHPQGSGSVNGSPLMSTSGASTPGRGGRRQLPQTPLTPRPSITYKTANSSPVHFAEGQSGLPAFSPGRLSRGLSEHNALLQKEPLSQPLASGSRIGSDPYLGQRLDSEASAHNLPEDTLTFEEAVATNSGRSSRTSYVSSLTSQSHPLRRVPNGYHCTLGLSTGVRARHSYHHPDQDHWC

With `OCCOCCN1CCN(C(c2ccccc2)c2ccc(Cl)cc2)CC1` (stereo not drawn) [HYDROXYZINE] the AC50 [1] was over 30 µM, the AC50 [2] was over 10 µM and the AC50 [3] was over 30 µM. For the same compound, the AC50 [4] was over 30 µM, the AC50 [5] was 0.157 µM and the AC50 [6] was over 30 µM.
Compound `C[C@@H](O)[C@H]1C(=O)N2C(C(=O)O)=C(SCCN=CN)C[C@H]12` [IMIPENEM ANHYDROUS] has an AC50 (D(1A) dopamine receptor [7]) of over 300 µM, an AC50 (Thromboxane A2 receptor [8]) of over 300 µM and an AC50 (Acetylcholinesterase) of over 300 µM. For the same compound, the AC50 (Thromboxane A2 receptor [9]) was over 300 µM.
In the case of `N#Cc1ccnc(N2C(=O)CC[C@H]2C(=O)N(c2cncc(F)c2)[C@H](C(=O)NC2CC(F)(F)C2)c2ccccc2Cl)c1` [IVOSIDENIB], the AC50 [10] is reported as over 30 µM.
In the case of `Nc1nnc(-c2cccc(Cl)c2Cl)c(N)n1` [LAMOTRIGINE], the AC50 [1] is reported as over 30 µM, the AC50 [2] is reported as over 10 µM and the AC50 [3] is reported as over 30 µM. The AC50 [4] was over 30 µM, the AC50 [5] was over 10 µM and the AC50 [6] was over 30 µM. The AC50 [10] was 18 µM.
Work on `O=C1[C@@H]2[C@H]3CC[C@H](C3)[C@@H]2C(=O)N1C[C@@H]1CCCC[C@H]1CN1CCN(c2nsc3ccccc23)CC1` [LURASIDONE] yielded an AC50 (Androgen receptor) of 5.7 µM, an AC50 [10] of 0.0699 µM and an AC50 (Thromboxane A2 receptor [8]) of over 30 µM. The AC50 (Acetylcholinesterase) was 1.3 µM.
With `CCCCCCO[C@@H](C)c1cccc(-c2csc(NC(=O)c3cc(Cl)c(/C=C(\C)C(=O)O)c(Cl)c3)n2)c1OC` [LUSUTROMBOPAG] the AC50 (D(1A) dopamine receptor [11]) was 5.53 µM and the AC50 [10] was 4.1 µM.
Compound `CO[C@@H]1[C@@H](OC(N)=O)[C@@H](O)[C@H](Oc2ccc3c(O)c(NC(=O)c4ccc(O)c(CC=C(C)C)c4)c(=O)oc3c2C)OC1(C)C` [NOVOBIOCIN] has an AC50 (D(1A) dopamine receptor [7]) of over 30 µM, an AC50 (Thromboxane A2 receptor [8]) of over 30 µM and an AC50 (Acetylcholinesterase) of over 30 µM. The AC50 (Thromboxane A2 receptor [9]) was over 30 µM.
`CCCCCCCC/C=C\CCCCCCCC(=O)O` [OLEIC ACID] was tested, and the AC50 [10] was 4.7 µM.
With `C#CCN(C)Cc1ccccc1` [PARGYLINE] the AC50 (D(1A) dopamine receptor [11]) was over 30 µM.
`CC(=O)SCC(Cc1ccccc1)C(=O)NCC(=O)OCc1ccccc1` (stereo not drawn) [RACECADOTRIL] was tested, and the AC50 [1] was over 30 µM, the AC50 [2] was over 10 µM and the AC50 [5] was over 10 µM.
Work on `COc1cc2c(cc1OC)C1CC(=O)C(CC(C)C)CN1CC2` (stereo not drawn) [TETRABENAZINE] yielded an AC50 (D(1A) dopamine receptor [7]) of over 30 µM.
`CC(C)(CO)c1cc2cc(NC(=O)C3(c4ccc5c(c4)OC(F)(F)O5)CC3)c(F)cc2n1C[C@@H](O)CO` [TEZACAFTOR] gave an AC50 (Androgen receptor) of over 30 µM.
`Cc1ccc(C(C)C)c(O)c1` [THYMOL] gave an AC50 [10] of 25 µM.
In the case of `Cc1c(C)c2c(c(C)c1O)CCC(C)(COc1ccc(CC3SC(=O)NC3=O)cc1)O2` (stereo not drawn) [TROGLITAZONE], the AC50 [1] is reported as over 30 µM, the AC50 (Androgen receptor) is reported as over 30 µM and the AC50 [3] is reported as over 30 µM. It also gave an AC50 [4] of over 30 µM and an AC50 [6] of over 30 µM.
`c1cnc2cc3c(cc2n1)[C@@H]1CNC[C@H]3C1` [VARENICLINE] showed an AC50 (D(1A) dopamine receptor [7]) of over 30 µM, an AC50 (Thromboxane A2 receptor [8]) of over 30 µM and an AC50 (Acetylcholinesterase) of over 30 µM. The AC50 (Thromboxane A2 receptor [9]) was over 30 µM.
In the case of `Nc1c2c(nc3ccccc13)CCCC2O` (stereo not drawn) [VELNACRINE], the AC50 (D(1A) dopamine receptor [7]) is reported as over 30 µM, the AC50 (Thromboxane A2 receptor [8]) is reported as over 30 µM and the AC50 (Thromboxane A2 receptor [9]) is reported as over 30 µM.
